This passage reports MIC80 results from ChEMBL document CHEMBL5338795, “Novel Triazoles with Potent and Broad-Spectrum Antifungal Activity In Vitro and In Vivo” (J Med Chem, 2023).

Values after ≈ are worked out from the molar mass of the structure shown.

As usually defined, the MIC80 is an inhibitory concentration at the 80% level, which refers to growth in some studies and to a panel of isolates in others.

Format in all cases: functional
Experiment [1] deals with Candida albicans. Kind of experiment: Antifungal activity against Candida albicans SC5314 assessed as reduction in fungal growth incubated for 24 hrs by CLSI based microdilution analysis. Background: Broth dilution looks for growth in wells or tubes with falling amounts of substance.
For experiment [2], the system named is Meyerozyma guilliermondii. Kind of experiment: Antifungal activity against Meyerozyma guilliermondii ATCC 6260 assessed as reduction in fungal growth incubated for 24 hrs by CLSI based microdilution analysis.
For a further experiment, the system named is Candida parapsilosis. Kind of experiment: Antifungal activity against Candida parapsilosis ATCC 22019 assessed as reduction in fungal growth incubated for 24 hrs by CLSI based microdilution analysis. Particulars: Lodderomyces parapsilosis.
The next experiment deals with Candida tropicalis. Put plainly: Antifungal activity against Candida tropicalis ATCC 750 assessed as reduction in fungal growth incubated for 24 hrs by CLSI based microdilution analysis.
A further experiment has as its system Nakaseomyces glabratus. Kind of experiment: Antifungal activity against Candida glabrata ATCC 15126 assessed as reduction in fungal growth incubated for 24 hrs by CLSI based microdilution analysis.
In a further experiment the test system is Cryptococcus neoformans. Put plainly: Antifungal activity against Cryptococcus neoformans CGMCC3 1563 assessed as reduction in fungal growth incubated for 72 hrs by CLSI based microdilution analysis.
Another experiment relates to Aspergillus fumigatus. Put plainly: Antifungal activity against Aspergillus fumigatus CGMCC3 7795 assessed as reduction in fungal growth incubated for 48 hrs by CLSI based microdilution analysis.
Experiment [3] deals with Candida albicans. Kind of experiment: Antifungal activity against fluconazole-resistant Candida albicans 102 assessed as inhibition of fungal growth measured for 24 hrs by CLSI based microdilution analysis.
The subject of experiment [4] is Candida albicans. Put plainly: Antifungal activity against fluconazole-resistant Candida albicans 13 assessed as inhibition of fungal growth measured for 24 hrs by CLSI based microdilution analysis.
Experiment [5] concerns Candida albicans. Put plainly: Antifungal activity against fluconazole-resistant Candida albicans 15 assessed as inhibition of fungal growth measured for 24 hrs by CLSI based microdilution analysis.
For experiment [6], the system named is Candida albicans. Put plainly: Antifungal activity against fluconazole-resistant Candida albicans 901 assessed as inhibition of fungal growth measured for 24 hrs by CLSI based microdilution analysis.
In experiment [7] the test system is Candida albicans. Put plainly: Antifungal activity against fluconazole-resistant Candida albicans 24D assessed as inhibition of fungal growth measured for 24 hrs by CLSI based microdilution analysis.
In experiment [8] the test system is Candida albicans. Put plainly: Antifungal activity against fluconazole-resistant Candida albicans 112869 assessed as inhibition of fungal growth measured for 24 hrs by CLSI based microdilution analysis.

Take `OC(CN1CCN(CCCCn2ccc3cc(Br)ccc32)CC1)(Cn1cncn1)c1ccc(F)cc1F` (stereo unspecified): the MIC80 was 0.062 µg/mL (≈ 0.108 µM) with Candida albicans [1]; 0.125 µg/mL (≈ 0.218 µM) in experiment [2]; 0.062 µg/mL (≈ 0.108 µM) with Candida parapsilosis; 0.312 µg/mL (≈ 0.544 µM) with Candida tropicalis; 0.312 µg/mL (≈ 0.544 µM) in the experiment with Nakaseomyces glabratus; 0.031 µg/mL (≈ 0.0541 µM) in the experiment on Cryptococcus neoformans. The MIC80 in the experiment with Aspergillus fumigatus amounted to 1.25 µg/mL (≈ 2.18 µM); in the experiment with Candida albicans [3], 0.062 µg/mL (≈ 0.108 µM); in the experiment on Candida albicans [4], 0.062 µg/mL (≈ 0.108 µM); with Candida albicans [5], 1.25 µg/mL (≈ 2.18 µM); in the experiment with Candida albicans [6], 2.5 µg/mL (≈ 4.36 µM); in the experiment on Candida albicans [7], 0.125 µg/mL (≈ 0.218 µM). The MIC80 in the experiment on Candida albicans [8] was 0.25 µg/mL (≈ 0.436 µM).
With `OC(CN1CCN(CCOc2ccc3c(c2)OCO3)CC1)(Cn1cncn1)c1ccc(F)cc1F` (stereo unspecified), the MIC80 with Candida albicans [1] came to 0.125 µg/mL (≈ 0.256 µM).
Same read-out and setting: with `OC(CN1CCN(CCn2c3ccccc3c3cc(Br)ccc32)CC1)(Cn1cncn1)c1ccc(F)cc1F` (stereo unspecified) the figure was 0.25 µg/mL (≈ 0.42 µM); with `OC(CN1CCN(CCCCCCCCCn2ccc3cc(Br)ccc32)CC1)(Cn1cncn1)c1ccc(F)cc1F` (stereo unspecified), 0.25 µg/mL (≈ 0.388 µM); with `OC(CN1CCN(CCCCCCCCCCn2ccc3cc(Cl)ccc32)CC1)(Cn1cncn1)c1ccc(F)cc1F` (stereo unspecified), 0.5 µg/mL (≈ 0.815 µM).
Same read-out and setting: the same measure for `CN1CCN(CC(O)(Cn2cncn2)c2ccc(F)cc2F)CC1` (stereo unspecified): 25 µg/mL (≈ 74.1 µM).
The same measure, in the same setting: the same measure for `OC(CN1CCN(CCCCCCCCCCn2ccc3cc(Br)ccc32)CC1)(Cn1cncn1)c1ccc(F)cc1F` (stereo unspecified): 0.25 µg/mL (≈ 0.38 µM).
For `O=C1C(=O)N(CCN2CCN(CC(O)(Cn3cncn3)c3ccc(F)cc3F)CC2)c2ccc(Br)cc21` (stereo unspecified), in the experiment on Candida albicans [1], the MIC80 turned out to be 0.062 µg/mL (≈ 0.108 µM).
On the same count and under the same terms, the same measure for `O=c1ccc2ccc(OCCN3CCN(CC(O)(Cn4cncn4)c4ccc(F)cc4F)CC3)cc2o1` (stereo unspecified): 0.25 µg/mL (≈ 0.489 µM); for `O=C(c1cc2cc(F)ccc2oc1=O)N1CCN(CC(O)(Cn2cncn2)c2ccc(F)cc2F)CC1` (stereo unspecified): 0.25 µg/mL (≈ 0.487 µM).
Same read-out and setting: the same measure for `COc1ccc2c(ccn2CCCCCN2CCN(CC(O)(Cn3cncn3)c3ccc(F)cc3F)CC2)c1` (stereo unspecified): 0.125 µg/mL (≈ 0.232 µM).
With `O=[N+]([O-])c1ccc2c(ccn2CCCN2CCN(CC(O)(Cn3cncn3)c3ccc(F)cc3F)CC2)c1` (stereo unspecified), the MIC80 with Candida albicans [1] is 0.031 µg/mL (≈ 0.059 µM); in [2], 0.125 µg/mL (≈ 0.238 µM); in the experiment on Candida parapsilosis, 0.062 µg/mL (≈ 0.118 µM); with Candida tropicalis, 0.312 µg/mL (≈ 0.594 µM); with Nakaseomyces glabratus it was 0.625 µg/mL (≈ 1.19 µM); in the experiment with Cryptococcus neoformans, 0.031 µg/mL (≈ 0.059 µM). The MIC80 was found to be 1.25 µg/mL (≈ 2.38 µM) in the experiment on Aspergillus fumigatus; 0.031 µg/mL (≈ 0.059 µM) with Candida albicans [3]; 0.062 µg/mL (≈ 0.118 µM) in the experiment with Candida albicans [4]; 0.625 µg/mL (≈ 1.19 µM) in the experiment with Candida albicans [5]; 1.25 µg/mL (≈ 2.38 µM) in the experiment with Candida albicans [6]; 0.031 µg/mL (≈ 0.059 µM) in the experiment on Candida albicans [7]. Besides, the MIC80 in the experiment on Candida albicans [8] worked out at 0.062 µg/mL (≈ 0.118 µM).
For `COc1ccc2c(ccn2CCCCCCCCCCN2CCN(CC(O)(Cn3cncn3)c3ccc(F)cc3F)CC2)c1` (stereo unspecified), the MIC80 with Candida albicans [1] is 0.5 µg/mL (≈ 0.821 µM).
Consider `Cc1ccc2oc(=O)c(C(=O)N3CCN(CC(O)(Cn4cncn4)c4ccc(F)cc4F)CC3)cc2c1` (stereo unspecified), for which the MIC80 in the experiment on Candida albicans [1] worked out at 0.125 µg/mL (≈ 0.245 µM).
As to `OC(CN1CCN(CCCCCn2ccc3cc(Br)ccc32)CC1)(Cn1cncn1)c1ccc(F)cc1F` (stereo unspecified), the MIC80 in the experiment on Candida albicans [1] was 0.125 µg/mL (≈ 0.213 µM).
As for `OC(CN1CCN(CCCn2ccc3cc(Cl)ccc32)CC1)(Cn1cncn1)c1ccc(F)cc1F` (stereo unspecified), the MIC80 was 0.031 µg/mL (≈ 0.0602 µM) in the experiment with Candida albicans [1]; 0.125 µg/mL (≈ 0.243 µM) in experiment [2]; 0.062 µg/mL (≈ 0.12 µM) with Candida parapsilosis; 0.625 µg/mL (≈ 1.21 µM) in the experiment with Candida tropicalis; 0.312 µg/mL (≈ 0.606 µM) in the experiment with Nakaseomyces glabratus; 0.031 µg/mL (≈ 0.0602 µM) in the experiment on Cryptococcus neoformans. In addition, the MIC80 in the experiment on Aspergillus fumigatus was 5 µg/mL (≈ 9.71 µM); in the experiment with Candida albicans [3], 0.062 µg/mL (≈ 0.12 µM); in the experiment on Candida albicans [4], 0.062 µg/mL (≈ 0.12 µM); in the experiment on Candida albicans [5] it was 2.5 µg/mL (≈ 4.85 µM); in the experiment on Candida albicans [6], 2.5 µg/mL (≈ 4.85 µM); in the experiment on Candida albicans [7] it was 0.062 µg/mL (≈ 0.12 µM). Besides, in the experiment with Candida albicans [8], the MIC80 turned out to be 0.062 µg/mL (≈ 0.12 µM).
For the compound `OC(CN1CCN(CCCCCCn2ccc3cc(Br)ccc32)CC1)(Cn1cncn1)c1ccc(F)cc1F` (stereo unspecified), the MIC80 with Candida albicans [1] is 0.125 µg/mL (≈ 0.208 µM).
Same read-out and setting: with `OC(CN1CCN(CCn2ccc3cc(Br)cnc32)CC1)(Cn1cncn1)c1ccc(F)cc1F` (stereo unspecified) the figure was 0.062 µg/mL (≈ 0.113 µM).
In the case of `COc1ccc2c(ccn2CCCN2CCN(CC(O)(Cn3cncn3)c3ccc(F)cc3F)CC2)c1` (stereo unspecified), the MIC80 in the experiment with Candida albicans [1] amounted to 0.062 µg/mL (≈ 0.121 µM); in [2], 0.125 µg/mL (≈ 0.245 µM); with Candida parapsilosis, 0.062 µg/mL (≈ 0.121 µM); in the experiment with Candida tropicalis, 0.625 µg/mL (≈ 1.22 µM); with Nakaseomyces glabratus, 0.312 µg/mL (≈ 0.611 µM); with Cryptococcus neoformans, 0.125 µg/mL (≈ 0.245 µM). In addition, the MIC80 worked out at 5 µg/mL (≈ 9.79 µM) with Aspergillus fumigatus; 0.062 µg/mL (≈ 0.121 µM) with Candida albicans [3]; 0.062 µg/mL (≈ 0.121 µM) in the experiment on Candida albicans [4]; 0.625 µg/mL (≈ 1.22 µM) with Candida albicans [5]; 5 µg/mL (≈ 9.79 µM) with Candida albicans [6]; 0.125 µg/mL (≈ 0.245 µM) in the experiment with Candida albicans [7]. Further, in the experiment on Candida albicans [8], the MIC80 was 0.25 µg/mL (≈ 0.49 µM).
As to `OC(CN1CCN(CCn2ccc3cc(Cl)c(Cl)cc32)CC1)(Cn1cncn1)c1ccc(F)cc1F` (stereo unspecified), the MIC80 came out at 0.031 µg/mL (≈ 0.0579 µM) in the experiment on Candida albicans [1]; 0.125 µg/mL (≈ 0.233 µM) in experiment [2]; 0.125 µg/mL (≈ 0.233 µM) with Candida parapsilosis; 0.312 µg/mL (≈ 0.583 µM) with Candida tropicalis; 0.312 µg/mL (≈ 0.583 µM) in the experiment on Nakaseomyces glabratus; 0.062 µg/mL (≈ 0.116 µM) in the experiment with Cryptococcus neoformans. The MIC80 with Aspergillus fumigatus came to 5 µg/mL (≈ 9.34 µM); in the experiment on Candida albicans [3], 0.062 µg/mL (≈ 0.116 µM); in the experiment with Candida albicans [4], 0.062 µg/mL (≈ 0.116 µM); with Candida albicans [5], 0.625 µg/mL (≈ 1.17 µM); with Candida albicans [6], 2.5 µg/mL (≈ 4.67 µM); in the experiment with Candida albicans [7] it was 0.062 µg/mL (≈ 0.116 µM). Further, the MIC80 in the experiment with Candida albicans [8] amounted to 0.25 µg/mL (≈ 0.467 µM).
Regarding `OC(CN1CCN(CCn2c3ccccc3c3ccccc32)CC1)(Cn1cncn1)c1ccc(F)cc1F` (stereo unspecified), in the experiment on Candida albicans [1], the MIC80 was 0.125 µg/mL (≈ 0.242 µM).
Still for that read-out and setting: the same measure for `O[C@@](CN1CCN(CCn2ncc3ccccc32)CC1)(Cn1cncn1)c1ccc(F)cc1F`: 0.031 µg/mL (≈ 0.0663 µM).
The same measure, in the same setting: the same measure for `OC(CN1CCN(CCCCCCn2ccc3ccc(F)cc32)CC1)(Cn1cncn1)c1ccc(F)cc1F` (stereo unspecified): 0.125 µg/mL (≈ 0.231 µM); for `OC(CN1CCN(CCCCCn2ccc3ccc(F)cc32)CC1)(Cn1cncn1)c1ccc(F)cc1F` (stereo unspecified): 0.125 µg/mL (≈ 0.237 µM).
As to `O=C(c1ccc2ncccc2c1)N1CCN(CC(O)(Cn2cncn2)c2ccc(F)cc2F)CC1` (stereo unspecified), the MIC80 with Candida albicans [1] stood at 0.125 µg/mL (≈ 0.261 µM).
For the compound `O=C(c1ccc2ccccc2c1)N1CCN(CC(O)(Cn2cncn2)c2ccc(F)cc2F)CC1` (stereo unspecified), in the experiment with Candida albicans [1], the MIC80 was 0.062 µg/mL (≈ 0.13 µM).
